In patent publication US5256820A, “1-alkyl-2-acyl-1,2-disulfonylhydrazines” (Yale University, priority 1991, dated 1993):
Entries after “also recorded” stand apart in the source; their conditions may differ.

Tests used:
[1] = Shyam et al. J. Med. Chem. (1990) 33:2259-2264; cited from earlier work
[2] = Prodrug activation by GSH, methanol generation determined using alcohol oxidase
Protocol: Our belief is confirmed by the following experiment in which we incubated a solution of 2-benzoyl-1,2-bis(methylsulfonyl)-1-methylhydrazine (R=C6 H5) in phosphate buffer (pH 7.4) at 37° C. in the presence and absence of GSH. The amount of methanol generated in 10 min, determined using alcohol oxidase by methodology described by Penketh et al. (1990) 33:730-732, was used as a measure of activation of the prodrug. In the presence of 1 mM GSH, the amount of methanol generated increased approximately 10-fold, relative to that occurring in phosphate buffer alone. […] In the case of the 1-(2-chloroethyl) derivative (the compound of Example 6), 22although precise quantitation was difficult due to the limitations of the assay, the compound of Example 6 gave a 6- to 7-fold greater amount of alkylated product when reacted with the nucleophile 4-(4'-nitrobenyl)pyridine in the presence of 5 mM GSH for 30 min at 37° C. than in its absence.

[3] = tested on: GST (glutathione-S-transferase), equine liver enzyme; experiment: GST-catalyzed GSH activation of prodrug; assay type: biochemical; conditions: 13.5 units/ml equine liver GST
Source text: Therefore, tumors resistant to conventional chloroethylating agents because of the protective effect conferred by high levels of intracellular thiols, may be more sensitive to 2-acyl-1,2-bis(methylsulfonyl)-1-methyl (or 2-chloroethyl)hydrazines. […] Although elevation of GST levels has been associated with increased resistance to a variety of alkylating agents, such a change is expected to increase sensitivity to the thiol-activated prodrugs.

[4] = Stewart and Evans (1989); cited from earlier work
L1210 leukemia = experiment: Survival time of mice bearing the L1210 leukemia; assay type: in vivo, mouse; conditions: for antineoplastic activity / curative effect (in words): L1210 leukemia mice; for % 60-day survivors / % T/C (average survival time of treated/control mice × 100) / AvΔ wt % (average percent change in body weight from onset to termination of therapy): at opt. effective daily dose; for % T/C (average survival time of treated/control mice × 100): 60-day survivors not included; for AvΔ wt % (average percent change in body weight from onset to termination of therapy): vehicle control +2.0; for Opt. effective daily dose: once daily for six consecutive days, beginning 24 h after tumor implantation, L1210 mice
Protocol: The antineoplastic activity of each of the compounds of Examples 1-6 was assessed by measuring their effects on the survival time of mice bearing the L1210 leukemia by the method generally disclosed in Shyam et al. J. Med. Chem. (1990) 33:2259-2264. The compounds were administered once daily for six consecutive days. Percent change in body weight from onset to termination of therapy was recorded. The results are summarized in Table I. All of the compounds tested produced at least partial 60-day "cures" of mice bearing the L1210 leukemia. […] This compound also produced 80-90% "cures" at 10 and 15 mg/kg×6.
Effects of 2-Acyl-1,2-bis(methylsulfonyl)-1-
^a Administered once daily for six consecutive days, beginning 24 h
after tumor implantation, with 5-10 mice being used per group.
^b Average day of death for untreated tumorbearing mice was 8.4.
^c Average percent change in body weight from onset to termination of
therapy. Average percent change in body weight for vehicletreated control
^d % T/C = average survival time of treated/control mice × 100;
60day survivors are listed separately and are not included in this

[5] = Spontaneous decomposition (hydrolysis) in aqueous phosphate buffer, phenol red proton release assay; assay type: physicochemical
Protocol: The compounds of the invention are relatively stable. As a measure of their stability, spontaneous decomposition in aqueous media was measured in phosphate buffer, pH 7.4 (37° C.). Hydrolysis at N-1 would result in the generation of a carboxylic acid and the corresponding 1,2-bis(methylsulfonyl)-1-(2-chloroethyl)hydrazine. Since both of these compounds are ionized under these conditions, the release of protons can be used to follow the decomposition of these and related compounds. The release of protons can be assayed by following the decrease in absorbance at 560 nm of a weakly buffered (1 mM potassium phosphate) phenol red (21 mg/L) solution. The assay has been calibrated using HC1 standards. […] The spontaneous hydrolysis of the compound of Example 1 at pH 7.4, 37° C. in 1 mM phosphate buffer occurs at approximately 0.7% of the rate of the corresponding prior art compounds [1,2,2-tris(methylsulfonyl)-1-(2-chloroethyl)hydrazine] under the same conditions. The rate of hydrolysis was highly sensitive to changes in temperature and pH (Tables II and III). […] At pH 7.4, 37° C., a 200 μM solution of the compound of Example 1 hydrolyzes at the rate of approximately 0.6% per hour. […] Therefore, stable aqueous solutions of this agent can be formulated. The other analogs synthesized according to Examples 2-6 also hydrolyzed at relatively slow rates.

[6] = Hydrolysis in the presence of bovine serum; assay type: in vitro ADME; conditions: for Rate of hydrolysis: 200 μM solution
Source text: (§1) To verify that the prodrugs would be converted to alkylating species in vivo, we performed studies on the kinetics of hydrolysis of these compounds in the presence of serum and also in the presence of proteinase K (a protease of low specificity). […] Serum from different sources, i.e., mouse, bovine and man, were not equivalent in their activities or in their rank order of substrate specificity. […] Table IV reports the effects of bovine serum concentrates on hydrolysis of two compounds--the compounds of Example 1 and Example 6.
Effects of Bovine Serum Concentration on the
^a Expressed nmol/ml/min for a 200 μM solution.

[7] = Alkylation of 4-(4'-nitrobenzyl)pyridine in presence and absence of bovine serum; conditions: 4 mM compound, 37° C., 1 h, 100 mM phosphate buffer pH 7.4
Protocol: Serum was capable of stimulating the alkylation of the model nucleophile, 4-(4'-nitrobenzyl)pyridine, by 2-acyl-1,2-bis(methylsulfonyl)-1-(2-chloroethyl)hydrazines, providing direct evidence for the serum-dependent generation of the alkylating species from these prodrugs (Table V).
Relative Alkylation of 4-(4'-Nitrobenzyl)pyridine
(NBP) by 4 mM 2-Acetyl-1,2-bis(methylsulfonyl)-1-(2-
chloroethyl)hydrazine at 37° C. for 1 h in 100 mM Phosphate
Buffer (pH 7.4) in the Presence and Absence of 20% Bovine

Water solubility = assay type: physicochemical
[8] = Hydrolysis in the presence of serum from different sources (mouse, bovine, man); assay type: in vitro ADME; conditions: bovine and man, in all cases
Source text: as §1

## CN(N(S(C)(=O)=O)S(C)(=O)=O)S(C)(=O)=O [1-Methyl-1,2,2-tris(methylsulfonyl)hydrazine]
[1]
  antineoplastic activity (in words): also showed antineoplastic activity
  toxicity (in words): relatively less toxic

## CN(N(C(=O)c1ccccc1)S(C)(=O)=O)S(C)(=O)=O [2-benzoyl-1,2-bis(methylsulfonyl)-1-methylhydrazine]
[2]; 1 mM GSH, 10 min, phosphate buffer pH 7.4, 37° C.
  increase in amount of methanol generated relative to phosphate buffer alone: approximately 10 fold
[2]; GSH
  dependence of rate of activation on GSH concentration (in words): directly proportional to the GSH concentration
[3]
  effect of GST on GSH activation rate (in words): doubling the activation rate

## CCCCS(=N)(=O)CCC(N)C(=O)O (stereo not drawn) [Buthionine sulfoximine]
[4]
  reversal of resistance to alkylating agents (in words): reverse this resistance by reducing cellular GSH levels

## CC(=O)N(N(CCCl)S(C)(=O)=O)S(C)(=O)=O [Example 1, 1-Acetyl-1,2-bis(methylsulfonyl)-2-(2-chloroethyl)hydrazine]
L1210 leukemia; 7.5 mg/kg, six daily intraperitoneal doses
  60-day "cures": 80%
L1210 leukemia
  antineoplastic activity / curative effect (in words): highly active against the L1210 leukemia; also recorded: produced their curative effects at relatively low dosage levels
  % 60-day survivors: 80%
  % T/C (average survival time of treated/control mice × 100): 341%
  AvΔ wt % (average percent change in body weight from onset to termination of therapy): +1.0%
  Opt. effective daily dose: 7.5 mg/kg
[5]; 23 °C (37 °C = 1.00)
  Relative rate of hydrolysis: 0.21
[5]; 30 °C (37 °C = 1.00)
  Relative rate of hydrolysis: 0.57
[5]; 32 °C (37 °C = 1.00)
  Relative rate of hydrolysis: 0.72
[5]; 37 °C (reference, 1.00)
  Relative rate of hydrolysis: 1.00
[5]; for every 0.2 unit rise in pH, pH 7.4-7.8 range
  increase of hydrolysis rate with pH: approximately 50%
[5]; for every 5° C. rise in temperature
  change of hydrolysis rate with temperature: double
[5]; pH 7.4 (pH 7.8 = 1.00)
  Relative rate of hydrolysis: 0.48
[5]; pH 7.4, 37° C., 1 mM phosphate buffer, vs 1,2,2-tris(methylsulfonyl)-1-(2-chloroethyl)hydrazine
  rate of spontaneous hydrolysis relative to prior art compound: approximately 0.7%
[5]; pH 7.5 (pH 7.8 = 1.00)
  Relative rate of hydrolysis: 0.57
[5]; pH 7.6 (pH 7.8 = 1.00)
  Relative rate of hydrolysis: 0.70
[5]; pH 7.8 (reference, 1.00)
  Relative rate of hydrolysis: 1.00
[5]; phosphate buffer, 200 μM solution, pH 7.4, 37° C., read-out: rate of hydrolysis
  degraded at 1 h, 200 µM: ~0.6%
[6]; 0% v/v bovine serum
  Rate of hydrolysis: 0.02 nmol/mL/min
[6]; 5% v/v bovine serum
  Rate of hydrolysis: 0.055 nmol/mL/min
[6]; 10% v/v bovine serum
  Rate of hydrolysis: 0.10 nmol/mL/min
[6]; 20% v/v bovine serum
  Rate of hydrolysis: 0.26 nmol/mL/min
[6]; boiled dilute solutions of bovine serum
  decrease in ability of bovine serum to hydrolyze the compound after boiling: > 75%
[7]; bovine serum (20%)
  Relative alkylation of NBP: 5.7
[7]; no serum
  Relative alkylation of NBP: 1.0
Water solubility
  water solubility (in words): most water-soluble analogs of this class

## CCC(=O)N(N(CCCl)S(C)(=O)=O)S(C)(=O)=O [Example 2, 1,2-Bis(methylsulfonyl)-1-(2-chloroethyl)-2-propionylhydrazine]
L1210 leukemia; 5 mg/kg×6
  "cures" of mice bearing the L1210 leukemia: 60%
L1210 leukemia; 10 and 15 mg/kg×6
  "cures" of mice bearing the L1210 leukemia: 80-90%
L1210 leukemia
  antineoplastic activity / curative effect (in words): appeared to be the most potent; also recorded: produced their curative effects at relatively low dosage levels
  % 60-day survivors: 90%
  % T/C (average survival time of treated/control mice × 100): 217%
  AvΔ wt % (average percent change in body weight from onset to termination of therapy): -6.4%
  Opt. effective daily dose: 10 mg/kg
Water solubility
  water solubility (in words): most water-soluble analogs of this class

## CCCC(=O)N(N(CCCl)S(C)(=O)=O)S(C)(=O)=O [Example 3, 1,2-Bis(methylsulfonyl)-1-(n-butyryl)-2-(2-chloroethyl)hydrazine]
L1210 leukemia
  % 60-day survivors: 20%
  % T/C (average survival time of treated/control mice × 100): 207%
  AvΔ wt % (average percent change in body weight from onset to termination of therapy): 0.0%
  Opt. effective daily dose: 10 mg/kg

## CC(C)(C)C(=O)N(N(CCCl)S(C)(=O)=O)S(C)(=O)=O [Example 4, 1,2-Bis(methylsulfonyl)-1-(2-chloroethyl)-2-pivaloylhydrazine]
L1210 leukemia
  % 60-day survivors: 60%
  % T/C (average survival time of treated/control mice × 100): 302%
  AvΔ wt % (average percent change in body weight from onset to termination of therapy): 0.0%
  Opt. effective daily dose: 20 mg/kg

## COCC(=O)N(N(CCCl)S(C)(=O)=O)S(C)(=O)=O [Example 5, 1,2-Bis(methylsulfonyl)-1-(2-chloroethyl)-2-methoxyacetylhydrazine]
L1210 leukemia; 10 mg/kg×6
  "cures" of tumor-bearing mice: 100%
L1210 leukemia
  antineoplastic activity / curative effect (in words): produced their curative effects at relatively low dosage levels
  % 60-day survivors: 100%
  AvΔ wt % (average percent change in body weight from onset to termination of therapy): -8.4%
  Opt. effective daily dose: 10 mg/kg
L1210 leukemia; higher dose levels examined (above 10 mg/kg×6)
  lethality: lethal at the higher dose levels examined
[8]
  sensitivity to serum hydrolysis (in words): two most sensitive compounds
Water solubility
  water solubility (in words): most water-soluble analogs of this class

## CS(=O)(=O)N(CCCl)N(C(=O)c1ccccc1)S(C)(=O)=O [Example 6, 1-Benzoyl-1,2-bis(methylsulfonyl)-2-(2-chloroethyl)hydrazine]
L1210 leukemia
  % 60-day survivors: 20%
  % T/C (average survival time of treated/control mice × 100): 160%
  AvΔ wt % (average percent change in body weight from onset to termination of therapy): -7.7%
  Opt. effective daily dose: 20 mg/kg
[6]; 0% v/v bovine serum
  Rate of hydrolysis: 0.06 nmol/mL/min
[6]; 5% v/v bovine serum
  Rate of hydrolysis: 0.22 nmol/mL/min
[6]; 10% v/v bovine serum
  Rate of hydrolysis: 0.52 nmol/mL/min
[6]; 20% v/v bovine serum
  Rate of hydrolysis: 1.31 nmol/mL/min
[8]
  sensitivity to serum hydrolysis (in words): two most sensitive compounds

## CS(=O)(=O)N(CCCl)N(S(C)(=O)=O)S(C)(=O)=O [PRIOR ART, 1-(2-chloroethyl)-1,2,2-tris(methylsulfonyl)hydrazine, reference compound]
L1210 leukemia
  % 60-day survivors: 100%
  AvΔ wt % (average percent change in body weight from onset to termination of therapy): -7.2%
  Opt. effective daily dose: 60 mg/kg
[1]
  antineoplastic activity (in words): displays potent antineoplastic activity
